Measurements reported in patent US10968214B2, “KRas G12C inhibitors” (Eli Lilly and Company, priority 2018, dated 2021).
Read-outs that look alike come from different tables or passages of the source.

Legend:
[1] = test system: pMEK in H358 xenograft tumors; experiment: In vivo target inhibition/PD, H358 xenograft, pMEK; set-up: species or system mouse; conditions: for inhibition at 30 mg/kg: 30 mg/kg single dose
Description: (§1) To evaluate in vivo target inhibition and anti-tumor efficacy of a compound, Human lung cancer cells, H358 or H2122 are implanted into nude mice xenograft tumor models. Either H358 or H2122 cells (10×10^6 in a 1:1 Matrigel® mix, 0.2 mL total volume) are implanted by subcutaneous injection in hind leg of nude female mice (Harlan Laboratories). A total of 5 mice each group are used for efficacy study, and a total of 3-4 mice each group are used for target engagement and PD study. Treatment is initiated with oral administration (gavage) of a test compound or vehicle (20% Captisol®, 25 mM phosphate, pH 2.0 in 0.2 mL volume when the tumor size reaches approximately […]. Tumor growth and body weight are monitored over time to evaluate efficacy and signs of toxicity. Bidimensional measurements of tumors are performed twice a week and tumor volumes are calculated based on mid-axis length and mid-axis width. Tumor volume data are transformed to a log scale to equalize variance across time and treatment groups. The log volume data are analyzed with a two-way repeated measures analysis of variance by time and treatment using the mixed procedures in SAS software (version 8.2). The correlation model for the repeated measures is spatial power. Treated groups are compared to the control group at each time point. The mixed procedure is also used separately for each treatment group to calculate adjusted means and standard errors at each time point. Both analyses account for the autocorrelation within each animal. The adjusted means and standard errors are plotted for each treatment group versus time.
(§2) For in vivo target inhibition and PD analysis, tumors are ground by mortar and pestle on dry ice and tumor fragments are added to 800 μL of lysis buffer containing 1% Triton X100, 25 mM Tris pH 7.5, 150 mM NaCl, 1 mM EDTA, and 1 mM EGTA with Halt protease and phosphatase inhibitor cocktail (Thermo Scientific, cat. no. 1861281) in lysing matrix D tubes (MP Biomedical®, cat. no. 6913-500) with one additional large bead (MP Biomedical® ¼″ ceramic sphere bead cat. no. 6540-412) per tube. Tumor fragments are homogenized in a Thermo Bio101® fast prep (FP120) at setting 4 for […] while cold for a total of 2 times. Lysates are spun at 14,000 rpm for 10 min at 4° C. to clarify. Protein estimation is done on the lysate supernatant using a BioRad Dc® protein assay and lysates are diluted in complete lysis/binding buffer from the Ras GTPase Chemi ELISA Kit® (Active Motif, cat. no. 52097). The active KRas ELISA was performed as follows: Glutathione-coated ELISA wells were incubated with diluted RAF1-GST in complete lysis/binding buffer for 1 hr at 4° C. with gentle agitation. Wells are washed 3 times with wash buffer and 100 μg of lysates are added to each well and incubated at RT for 1 hr with mild agitation. The wells are washed an additional 3 times, then primary antibody, diluted in antibody binding buffer, is added to each well. The plates are incubated for 1 hr. The wells are washed 3 more times before adding HRP-conjugated secondary antibody, diluted in antibody binding buffer, to each well. The plates are incubated at RT for 1 hr. ELISA wells are washed 4 times, chemiluminescent reagents is added and then luminescence is read. For pERK Meso Scale Discovery ELISA, 25 μg of protein containing 0.1% SDS is used; for pMEK Meso Scale Discovery ELISA, 50 μg of protein without SDS is used. Meso Scale Discovery Whole Cell Lysate Kits for pERK and pMEK are provided by Meso Scale Discovery.
The tumor samples are collected 4 hr post a single dose. The tumor lysates are prepared and the inhibition of pERK, pMEK, and active KRas is measured as described above.
After a single dose, the tumor samples are harvested at 2, 4, 8, 12 and 24 hr post doing. The tumor lysates are prepared and the inhibition of pERK, pMEK, and active KRas is measured as described above.

H1792 = experiment: CellTiterGlo Cell Proliferation Assay, H1792; type: cell-based; conditions: Homo sapiens, NCI-H1792, KRas G12C, Lung, 96 hr
Description: A panel of tumor cell lines harboring KRas G12C or other KRas mutations are collected (Table 6). All cell lines are from ATCC or other sources indicated.
Typically cells are cultured in RPMI1640 or Dulbecco's modified Eagle's medium (DMEM, GIBCO) supplemented with 10% FBS (GIBCO, Invitrogen). For 2D culture cells (4×10^3/well) maintained in growth medium described above, are plated onto 96 well tissue culture plates Corning® Cat. 3603) a day before the treatment. For 3D culture 8000 cells/well are seeded onto 96 well ultra-low attachment tissue culture plates (Corning, #3474). The cells are treated compound for 96 hr, and then are analyzed for viability using the CellTiterGlo® Luminescent Cell Viability Assay® (Promega #G7572 for 2D and Promega #G9683 for 3D cultures) according to manufacturer's instructions and an EnVision™ plate reader. Nonlinear regression and sigmoidal dose-response curves are used to calculate the half maximal inhibitory concentration (IC50) with GraphPad Prism 4® software.

[2] = biological target: T1, active KRas in H2122 xenograft tumors (Homo sapiens, UniProt P01116, G12C); experiment: In vivo target inhibition/PD, H2122 xenograft, active KRas; conditions: NCI-H2122, mouse; for inhibition at 10 mg/kg: 10 mg/kg single dose; for inhibition at 30 mg/kg: 30 mg/kg single dose
T1 construct: from tissue; host or cells: H2122 xenograft tumours from nude mice
T1 sequence (P01116 1-188 isoform P01116-2 G12C): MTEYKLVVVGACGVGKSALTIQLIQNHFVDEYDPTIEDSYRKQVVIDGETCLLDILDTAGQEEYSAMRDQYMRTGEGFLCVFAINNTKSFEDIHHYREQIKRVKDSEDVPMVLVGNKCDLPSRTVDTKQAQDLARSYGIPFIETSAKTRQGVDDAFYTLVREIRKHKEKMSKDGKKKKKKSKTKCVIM
Description: as §1, §2
After a single dose, the tumor samples are harvested at different time points. The tumor lysates are prepared as described above. The inhibition of pERK, pMEK, and active KRas is measured as described above.

[3] = 2 hr, read-out: % Inhibition Active KRas
[4] = 4 hr, read-out: % Inhibition Active KRas
[5] = 8 hr, read-out: % Inhibition Active KRas
[6] = 12 hr, read-out: % Inhibition Active KRas
[7] = 24 hr, read-out: % Inhibition Active KRas

## C=CC(=O)N1CCN(c2ncnc3c(F)c(-c4ccc(F)c5sc(N)nc45)c(Cl)cc23)CC1 [Example 1, 1-{4-[7-(2-Amino-7-fluoro-1,3-benzothiazol-4-yl)-6-chloro-8-fluoroquinazolin-4-yl]piperazin-1-yl}prop-2-en-1-one]
[1]; H358 xenograft, time course, 10 mg/kg single dose, 24 hr, 10 mg/kg
  % Inhibition pMEK: 30.4%
[1]; H358 xenograft, single dose, 4 hr
  dose to achieve 50% target inhibition (TED50), pMEK: 11.19 mg/kg
[1]; Mus musculus, NCI-H358, 2 h, H358 xenograft, time course, 10 mg/kg single dose, 2 hr, read-out: % Inhibition pMEK
  inhibition at 10 mg/kg: 49.2%
[1]; Mus musculus, NCI-H358, 2 h, H358 xenograft, time course, 2 hr, read-out: % Inhibition pMEK
  inhibition at 30 mg/kg: 81.4%
[1]; Mus musculus, NCI-H358, 4 h, H358 xenograft, time course, 10 mg/kg single dose, 4 hr, read-out: % Inhibition pMEK
  inhibition at 10 mg/kg: 59.5%
[1]; Mus musculus, NCI-H358, 4 h, H358 xenograft, time course, 4 hr, read-out: % Inhibition pMEK
  inhibition at 30 mg/kg: 89.3%
[1]; Mus musculus, NCI-H358, 4 h, H358 xenograft, 1 mg/kg single dose, 4 hr post dose
  inhibition at 1 mg/kg: -6.2%
[1]; Mus musculus, NCI-H358, 4 h, H358 xenograft, 3 mg/kg single dose, 4 hr post dose
  inhibition at 3 mg/kg: 11.1%
[1]; Mus musculus, NCI-H358, 4 h, H358 xenograft, 10 mg/kg single dose, 4 hr post dose, read-out: % Inhibition pMEK
  inhibition at 10 mg/kg: 43.1%
[1]; Mus musculus, NCI-H358, 4 h, H358 xenograft, 4 hr post dose, read-out: % Inhibition pMEK
  inhibition at 30 mg/kg: 82.1%
[1]; Mus musculus, NCI-H358, 4 h, H358 xenograft, 100 mg/kg single dose, 4 hr post dose
  inhibition at 100 mg/kg: 85.8%
[1]; Mus musculus, NCI-H358, 8 h, H358 xenograft, time course, 10 mg/kg single dose, 8 hr, read-out: % Inhibition pMEK
  inhibition at 10 mg/kg: 62.4%
[1]; Mus musculus, NCI-H358, 8 h, H358 xenograft, time course, 8 hr, read-out: % Inhibition pMEK
  inhibition at 30 mg/kg: 81.8%
[1]; Mus musculus, NCI-H358, 12 h, H358 xenograft, time course, 10 mg/kg single dose, 12 hr, read-out: % Inhibition pMEK
  inhibition at 10 mg/kg: 77.9%
[1]; Mus musculus, NCI-H358, 12 h, H358 xenograft, time course, 12 hr, read-out: % Inhibition pMEK
  inhibition at 30 mg/kg: 65.8%
[1]; Mus musculus, NCI-H358, 24 h, H358 xenograft, time course, 10 mg/kg single dose, 24 hr, read-out: % Inhibition pMEK
  inhibition at 10 mg/kg: 30%
[1]; Mus musculus, NCI-H358, 24 h, H358 xenograft, time course, 24 hr, read-out: % Inhibition pMEK
  inhibition at 30 mg/kg: 35%
[1]; Mus musculus, NCI-H358, H358 xenograft, 10 mg/kg single dose, from 2-12 hr, read-out: pMEK inhibition
  inhibition at 10 mg/kg: 49 to 78%
[1]; Mus musculus, NCI-H358, H358 xenograft, from 2-24 hr, read-out: pMEK inhibition
  inhibition at 30 mg/kg: 35 to 89%
[1]; Mus musculus, NCI-H358, H358 xenograft, plasma exposure by mass spectrum, read-out: plasma concentration to achieve 50% target inhibition (TEC50), pMEK
  EC50: 0.515 µM
H1792; read-out: IC50 (μM) in 2 D cell proliferation
  IC50: 3.93 µM
H1792; read-out: IC50 (μM) in 3 D spheroid cell proliferation
  IC50: 3.84 µM
[2]; [3]
  inhibition at 10 mg/kg: 25.8%
  inhibition at 30 mg/kg: 57.5%
[2]; [4]
  inhibition at 10 mg/kg: 32.3%
  inhibition at 30 mg/kg: 78.8%
[2]; [5]
  inhibition at 10 mg/kg: 34.7%
  inhibition at 30 mg/kg: 67%
[2]; [6]
  inhibition at 10 mg/kg: 37.1%
  inhibition at 30 mg/kg: 46.5%
[2]; [7]
  inhibition at 10 mg/kg: 16.7%
  inhibition at 30 mg/kg: 26.1%
[2]; from 2-12 hr, read-out: active KRas inhibition
  inhibition at 10 mg/kg: 26 to 37%
[2]; from 2-[…], read-out: active KRas inhibition
  inhibition at 30 mg/kg: 26 to 79%
[2]; 100 mg/kg single dose, 4 hr
  inhibition at 100 mg/kg: 90.6%
